Results published in ChEMBL document CHEMBL1201862, “PubChem BioAssay data set” (2004).
Counter-ions that a name gives are not always drawn.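 Values below derive from 48-hour exposures of cells grown in 96-well plates, with endpoints linearly interpolated between the two concentrations bracketing the appropriate inhibition level. GI50: concentration for 50% inhibition of growth.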 The source made the active and inactive calls. Rule as the data show it: active = GI50 up to about 1.1 µM and inactive = higher.

Legend:
Assay in all cases: NCI anticancer screen, dose series, 48 h
SW-620 = tested on: SW-620
UACC-62 = tested on: UACC-62
HCT-116 = tested on: HCT-116
MDA-MB-435 = tested on: MDA-MB-435
Malme-3M = tested on: Malme-3M
M14 = tested on: M14
U-251 = tested on: U-251
SF-295 = tested on: SF-295
OVCAR-4 = tested on: OVCAR-4
COLO 205 = tested on: COLO 205
SNB-19 = tested on: SNB-19
SK-OV-3 = tested on: SK-OV-3
NCI/ADR-RES = tested on: NCI/ADR-RES
HCT-15 = tested on: HCT-15
HT-29 = tested on: HT-29
BT-549 = tested on: BT-549
NCI-H522 = tested on: NCI-H522
A498 = tested on: A498
K562 = tested on: K562
HL-60 = tested on: HL-60

| SMILES | GI50 (SW-620) | GI50 (UACC-62) | GI50 (HCT-116) | GI50 (MDA-MB-435) | GI50 (Malme-3M) | GI50 (M14) | GI50 (U-251) | GI50 (SF-295) | GI50 (OVCAR-4) | GI50 (COLO 205) | GI50 (SNB-19) | GI50 (SK-OV-3) | GI50 (NCI/ADR-RES) | GI50 (HCT-15) | GI50 (HT-29) | GI50 (BT-549) | GI50 (NCI-H522) | GI50 (A498) | GI50 (K562) | GI50 (HL-60) |
| --- | --- | --- | --- | --- | --- | --- | --- | --- | --- | --- | --- | --- | --- | --- | --- | --- | --- | --- | --- | --- |
| NC(=O)c1ncn(C2CCC(CP(=O)(O)O)C2)c1N (centres undefined) | > 100 µM (inactive) | > 100 µM (inactive) | > 100 µM (inactive) | > 100 µM (inactive) | > 100 µM (inactive) | > 100 µM (inactive) | > 100 µM (inactive) | > 100 µM (inactive) | > 100 µM (inactive) | > 100 µM (inactive) | > 100 µM (inactive) | > 100 µM (inactive) | > 100 µM (inactive) | > 100 µM | > 100 µM (inactive) |  |  |  |  |  |
| N=c1ccn2c(n1)O[C@H]1[C@H](O)[C@@H](CO)O[C@H]12 [ANCITABINE HYDROCHLORIDE] |  | 2.24 µM (inactive) | 0.282 µM (active) |  | 3.03 µM (inactive) | 0.253 µM (active) | 15.1 µM (inactive) | 25.2 µM (inactive) | > 1000 µM (inactive) | 154 µM (inactive) |  | 66.1 µM (inactive) | 2.35 µM (inactive) |  | 135 µM (inactive) | > 1000 µM (inactive) | 47.4 µM (inactive) | 13.6 µM (inactive) | 8.85 µM (inactive) | 0.346 µM (active) |
| O=C1OC(c2ccccc2)=N/C1=C/NC(CO)C(=O)O (centres undefined) | > 100 µM (inactive) | > 100 µM (inactive) | > 100 µM (inactive) |  | > 100 µM (inactive) | > 100 µM (inactive) | > 100 µM (inactive) | > 100 µM (inactive) | > 100 µM (inactive) | > 100 µM (inactive) | 48.9 µM (inactive) | > 100 µM (inactive) |  | > 100 µM | > 100 µM (inactive) |  | > 100 µM (inactive) | > 100 µM (inactive) | > 100 µM (inactive) | > 100 µM (inactive) |
| CC(C)(Cl)C(Br)CCC(Br)(CCl)C(Cl)CBr (centres undefined) | > 10 µM (inactive) |  |  | > 10 µM (inactive) | > 10 µM (inactive) | > 10 µM (inactive) | > 10 µM (inactive) | > 10 µM (inactive) | > 10 µM (inactive) | > 10 µM (inactive) | > 10 µM (inactive) | > 10 µM (inactive) | > 10 µM (inactive) | > 10 µM | > 10 µM (inactive) |  | > 10 µM (inactive) | > 10 µM (inactive) | > 10 µM (inactive) | > 10 µM (inactive) |
| COc1ccc2cccc(C(=N)c3ccc(C)c4c3CCC4)c2c1 | 5.38 µM (inactive) | 4.18 µM (inactive) | 4.59 µM (inactive) |  | 3.62 µM (inactive) | 5.97 µM (inactive) | 9.57 µM (inactive) | 5.7 µM (inactive) | 12.2 µM (inactive) | 11.9 µM (inactive) | 11.2 µM (inactive) | 14.5 µM (inactive) |  | 7.46 µM | 4.02 µM (inactive) |  | 3.72 µM (inactive) | 2.14 µM (inactive) | 2.92 µM (inactive) | 2.67 µM (inactive) |
| CC1(C)CC(=O)C=C(NC(=O)c2ccccc2)C1 | > 100 µM (inactive) | > 100 µM (inactive) | > 100 µM (inactive) |  | > 100 µM (inactive) | > 100 µM (inactive) | > 100 µM (inactive) | > 100 µM (inactive) | > 100 µM (inactive) | > 100 µM (inactive) | > 100 µM (inactive) | > 100 µM (inactive) |  | > 100 µM | > 100 µM (inactive) |  | > 100 µM (inactive) | > 100 µM (inactive) | > 100 µM (inactive) | > 100 µM (inactive) |
| COc1cc2ccnc3c2c(c1OC)-c1coc(SC)c1-3 | > 100 µM (inactive) | 86.1 µM (inactive) | 52.8 µM (inactive) |  | > 100 µM (inactive) | > 100 µM (inactive) | 67.1 µM (inactive) | 13.4 µM (inactive) | 48.6 µM (inactive) | > 100 µM (inactive) | > 100 µM (inactive) | > 100 µM (inactive) |  | > 100 µM | 94.8 µM (inactive) |  | 32.4 µM (inactive) | 19.5 µM (inactive) | > 100 µM (inactive) | 9.18 µM (inactive) |
| CNCc1cc(OC)ccc1-c1ccc(OC)c(OC)c1OC | > 96.4 µM (inactive) | > 100 µM (inactive) | > 94.6 µM (inactive) |  | > 100 µM (inactive) | > 100 µM (inactive) | > 100 µM (inactive) | 75 µM (inactive) | > 80.9 µM (inactive) | > 100 µM (inactive) | > 100 µM (inactive) | > 100 µM (inactive) |  | > 100 µM | 82.6 µM (inactive) |  | > 100 µM (inactive) | > 100 µM (inactive) | 51.9 µM (inactive) | 48.1 µM (inactive) |
| CCOC(=O)C(C#N)C1=CC(=O)C(=O)c2ccc(OC)cc21 (centres undefined) | 18.4 µM (inactive) | 15.2 µM (inactive) | 20.7 µM (inactive) | 17.6 µM (inactive) | 16.9 µM (inactive) | 15.6 µM (inactive) | 29.2 µM (inactive) | 23.3 µM (inactive) | 19 µM (inactive) | 17 µM (inactive) | 22.1 µM (inactive) | 18.4 µM (inactive) | 20.1 µM (inactive) | 23.8 µM | 31.6 µM (inactive) |  | 3.89 µM (inactive) | 21.8 µM (inactive) | 36.6 µM (inactive) | 38.3 µM (inactive) |
| COc1cc2cc(C(=O)N3CC(COS(C)(=O)=O)c4ccc(O)cc43)[nH]c2c(OC)c1OC (centres undefined) | < 0.0001 µM (active) | < 0.0001 µM (active) | < 0.0001 µM (active) | < 0.0001 µM (active) | < 0.0001 µM (active) | < 0.0001 µM (active) | < 0.0001 µM (active) | < 0.0001 µM (active) | < 0.0001 µM (active) | 0.000432 µM (active) | < 0.0001 µM (active) |  | < 0.0001 µM (active) | < 0.0001 µM | < 0.0001 µM (active) |  | < 0.0001 µM (active) | < 0.01 µM (active) | < 0.0001 µM (active) | < 0.0001 µM (active) |
| CCCCCCCCCCCCCCCCP(=O)(O)OCC(N)C(=O)O (centres undefined) | 28.7 µM (inactive) | 44.5 µM (inactive) | 19.6 µM (inactive) | 37.3 µM (inactive) | > 100 µM (inactive) | 50.2 µM (inactive) | 29.8 µM (inactive) | 20.7 µM (inactive) | 37.9 µM (inactive) | 46.1 µM (inactive) | 16.9 µM (inactive) | 56.1 µM (inactive) | > 100 µM (inactive) | 31.3 µM | 55.3 µM (inactive) |  | 12.1 µM (inactive) | 23.6 µM (inactive) | > 100 µM (inactive) | 18.7 µM (inactive) |
| O=c1[nH]c(Br)nc2c(Br)c[nH]c12 | > 100 µM (inactive) | > 100 µM (inactive) | > 100 µM (inactive) |  | > 100 µM (inactive) | > 100 µM (inactive) | > 100 µM (inactive) | > 100 µM (inactive) | > 100 µM (inactive) | > 100 µM (inactive) | > 100 µM (inactive) | > 100 µM (inactive) |  | > 100 µM | > 100 µM (inactive) |  | 31.3 µM (inactive) | > 100 µM (inactive) | > 100 µM (inactive) | > 100 µM (inactive) |
| N#Cc1cc(NC(=O)c2ccccc2)c(=O)n2c1[nH]c1ccccc12 | 39 µM (inactive) | 17.4 µM (inactive) | 21.4 µM (inactive) |  | 23.9 µM (inactive) | 27.3 µM (inactive) | 26.9 µM (inactive) | 71 µM (inactive) | 27 µM (inactive) | 31.6 µM (inactive) | 23.4 µM (inactive) | 28.8 µM (inactive) |  | 31 µM | 48.5 µM (inactive) |  | 11 µM (inactive) | 22.7 µM (inactive) | 31.7 µM (inactive) | 26.4 µM (inactive) |
| CCS(CC)(CC)CC1CCCC2=CCC(P(=O)(c3ccccc3)c3ccccc3)CC21 (centres undefined) | 13.9 µM (inactive) | 3.01 µM (inactive) | 7.36 µM (inactive) |  | 18.4 µM (inactive) | 12.2 µM (inactive) | 10.2 µM (inactive) | 3.81 µM (inactive) | 10.1 µM (inactive) | 17 µM (inactive) | 12.9 µM (inactive) | 12.7 µM (inactive) |  | 8.26 µM | 9.12 µM (inactive) |  | 11 µM (inactive) | 13.6 µM (inactive) | 4.09 µM (inactive) | 3.31 µM (inactive) |
| Cc1ccc(-n2c3nc(=O)n(C)c(=O)c-3nc3ccccc32)cc1 | 5.75 µM (inactive) | 2.3 µM (inactive) | 19.1 µM (inactive) |  | 13.8 µM (inactive) | 12.8 µM (inactive) | 15.1 µM (inactive) | 11.2 µM (inactive) | 14.5 µM (inactive) | 4.47 µM (inactive) | 12.9 µM (inactive) | 95.7 µM (inactive) |  | 8.18 µM | 3.54 µM (inactive) |  | 12.6 µM (inactive) | 26.7 µM (inactive) | 17 µM (inactive) | 11.1 µM (inactive) |
| Nc1nc(OCc2ccccc2)c2nc[nH]c2n1 [6-O-BENZYLGUANINE] | 169 µM (inactive) | 44.2 µM (inactive) | 59.6 µM (inactive) |  | 87.9 µM (inactive) | 75.9 µM (inactive) | 87.7 µM (inactive) | 121 µM (inactive) | 69.8 µM (inactive) | 124 µM (inactive) | 129 µM (inactive) | 75.7 µM (inactive) |  | 57.1 µM | 87.3 µM (inactive) |  | 49.4 µM (inactive) | 57.8 µM (inactive) | 86.5 µM (inactive) | 45.7 µM (inactive) |
